Among the data in US11420970B1 (NOVARTIS AG, priority 2019, dated 2022) are IC50 values, retold here.

Chain of NSD2 [1-1365] (O96028 whole entry): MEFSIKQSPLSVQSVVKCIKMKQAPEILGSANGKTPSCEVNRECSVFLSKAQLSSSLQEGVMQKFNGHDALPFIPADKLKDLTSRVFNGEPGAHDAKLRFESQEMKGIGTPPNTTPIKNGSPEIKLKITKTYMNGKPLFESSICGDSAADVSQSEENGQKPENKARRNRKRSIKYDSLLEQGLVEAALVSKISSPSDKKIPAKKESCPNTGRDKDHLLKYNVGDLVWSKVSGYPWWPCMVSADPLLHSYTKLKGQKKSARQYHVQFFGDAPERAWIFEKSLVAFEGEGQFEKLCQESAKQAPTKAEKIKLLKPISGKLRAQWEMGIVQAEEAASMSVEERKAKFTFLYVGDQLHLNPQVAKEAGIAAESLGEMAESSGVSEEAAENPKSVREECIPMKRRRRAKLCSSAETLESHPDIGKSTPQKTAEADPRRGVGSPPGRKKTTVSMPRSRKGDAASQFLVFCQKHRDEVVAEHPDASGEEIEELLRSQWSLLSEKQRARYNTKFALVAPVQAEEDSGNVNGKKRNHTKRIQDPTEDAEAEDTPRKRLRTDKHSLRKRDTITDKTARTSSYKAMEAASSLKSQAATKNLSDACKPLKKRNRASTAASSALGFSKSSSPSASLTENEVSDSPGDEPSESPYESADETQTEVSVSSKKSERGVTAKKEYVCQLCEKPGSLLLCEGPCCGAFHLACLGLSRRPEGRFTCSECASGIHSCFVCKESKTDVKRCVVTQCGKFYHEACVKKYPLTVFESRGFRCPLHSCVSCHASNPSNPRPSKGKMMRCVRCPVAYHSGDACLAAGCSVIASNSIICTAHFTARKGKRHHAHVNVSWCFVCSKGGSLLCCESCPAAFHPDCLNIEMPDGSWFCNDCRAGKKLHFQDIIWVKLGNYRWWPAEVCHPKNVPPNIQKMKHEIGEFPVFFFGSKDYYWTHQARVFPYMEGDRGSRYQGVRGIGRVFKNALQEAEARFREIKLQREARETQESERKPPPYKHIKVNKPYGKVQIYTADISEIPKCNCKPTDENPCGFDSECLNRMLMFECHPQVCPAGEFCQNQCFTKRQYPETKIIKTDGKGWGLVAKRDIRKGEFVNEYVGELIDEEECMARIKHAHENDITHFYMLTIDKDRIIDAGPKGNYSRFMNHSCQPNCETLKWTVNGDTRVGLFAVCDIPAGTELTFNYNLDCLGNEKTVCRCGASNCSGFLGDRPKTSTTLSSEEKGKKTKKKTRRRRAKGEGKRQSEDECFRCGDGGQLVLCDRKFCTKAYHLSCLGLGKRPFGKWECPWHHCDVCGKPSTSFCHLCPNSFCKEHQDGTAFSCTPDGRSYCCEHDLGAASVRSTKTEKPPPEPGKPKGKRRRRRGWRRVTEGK

The first experiment has as its target NSD2 [1-1365] (Homo sapiens (Human), UniProt O96028). Nature of the experiment: LC-MS/MS-based NSD2 enzymatic assay (SAH production). Format: biochemical. Conditions: NSD2 biochemical activity, class symbols; read-out: NSD2 IC50. Here is the method:
LC-MS/MS-Based NSD2 Enzymatic Assay
This assay employed LC-MS/MS technology to monitor the SAH production from the NSD2 enzymatic reaction. The enzymatic reaction was performed in white proxiplate plus 384-well microplate (Perkin Elmer). The reaction mixture (10 μL) were composed of 8 nM NSD2 [1-1365], […] SAM (USB, 10601) and 400 nM nucleosome (purified from mouse liver) in reaction buffer (20 mM Tris-HCl, pH at 8.0, 0.01% Tween 20, 10 mM MgCl2, 50 mM NaCl, 1 mM DTT, 1 mM TCEP (pH7.5)). After 90 min incubation at room temperature, 3 μL quenching solution containing 2.5% TFA with 320 nM d4-SAH was added to stop the reaction.
For the inhibition assay, compound solutions were transferred into the wells by Mosquito™ (TTP LabTech). The inhibition assays were carried out by preincubating various concentrations of the inhibitor with 5 uL reaction mixture containing 16 nM NSD2 [1-1365] and 2 uM SAM (USB, 10601) in reaction buffer. After 20 min preincubation, 5 uL solution containing 800 nM nucleosome (purified from mouse liver) in reaction buffer was added to initiate the reaction. The reaction was stopped by 3 μL quenching solution containing 2.5% TFA with 320 nM d4-SAH after 90 min.
The SAH production from the enzymatic assays were monitored by LC-MS/MS on an API 4000 triple quadrupole mass spec with Turbolon Spray (Applied Biosystem) coupled with Prominenece UFLC(Shimazu). Liquid chromatography was performed on a Chromolith FastGradient HPLC column (RP-18e, 25-2 mm, from Merck) at a flow rate of 0.8 ml/min. The column was connected directly to the turbo ion electrospray operating in the positive-ion mode. Mobile phase A is 0.1% FA and 2% methanol in water and mobile phase B is 0.1% FA in ACN. Injection volume was 3 μl and the autosampler was kept at 4 degree. SAH and d4-SAH were simultaneously monitored. Data were acquired and processed by Analyst software.
To quantify the formed SAH, d4-SAH was added as internal standard (IS). A series of SAH (Sigma, A9384) solution at varying concentration (1-500 nM in reaction buffer) was mixed with quenching solution mentioned above. Then LC-MS/MS was carried out on API 4000 LC/MS/MS system to detect both SAH and d4-SAH. The plot of SAH peak area/IS peak area vs SAH concentration was used to generate the normalization factor of SAH. The SAH production from real enzymatic reaction was derived from the standard curve of SAH. The down-limit of our system for the detection of SAH is around 1-2 nM, and the linear range can reach up to 500 nM.
In the case of `Nc1ncnc2c1ncn2Cc1cc(-c2ccc(F)c(F)c2)ncc1N1CCC[C@](N)(C(=O)N2CCCC2)C1` [Example 84, (R)-(3-amino-1-(4-((6-amino-9H-purin-9-yl)methyl)-6-(3,4-difluorophenyl)pyridin-3-yl)piperidin-3-yl)(pyrrolidin-1-yl)methanone], the IC50 (usually the concentration at which inhibition is half-maximal) was in the range of 10 to 1000 nM.
The same measure, in the same setting: under `CN(C)C(=O)CC1(N)CCCN(c2cnc(-c3ccc(F)c(F)c3)cc2Cn2cnc3c(N)ncc(Cl)c32)C1` (stereo not shown) [Example 68, 2-(3-amino-1-(4-((4-amino-7-] stands 10 to 1000 nM; under `COc1ccc(-c2cc(Cn3cnc4c(N)ncnc43)c(N3C[C@H](N)CC(F)(F)C3)cn2)cc1F` [Example 16, (R)-9-((5-(5-amino-3,3-difluoropiperidin-1-yl)-2-(3-fluoro-4-methoxyphenyl)pyridin-4-yl)methyl)-9H-purin-6-amine], 10 to 1000 nM; under `Nc1ncnc2c1ncn2Cc1cc(-c2ccc(C(F)F)cc2F)ncc1N1CCC[C@](N)([C@H](O)C(F)F)C1` [Example 137, (S)-1-((R)-3-amino-1-(4-((6-amino-9H-purin-9-yl)methyl)-6-(4-(difluoromethyl)-2-fluorophenyl)pyridin-3-yl)piperidin-3-yl)-2,2-difluoroethan-1-ol], 10 to 1000 nM.
Consider `COc1cc(F)c(-c2ncc(N3CCC[C@](N)([C@H](O)C(F)F)C3)c(Cn3cnc4c(N)ncnc43)c2F)cc1F` [Example 149, (S)-1-((R)-3-amino-1-(4-((6-amino-9H-purin-9-yl)methyl)-6-(2,5-difluoro-4-methoxyphenyl)-5-fluoropyridin-3-yl)piperidin-3-yl)-2,2-difluoroethan-1-ol], for which the 50% inhibitory concentration (IC50) is 10 to 1000 nM.
As to `N#CC1CCN(c2cnc(-c3ccc(F)c(F)c3)cc2Cn2cnc3c(N)ncnc32)CC1N` (stereo not shown) [Example 18, 3-amino-1-(4-((6-amino-9H-purin-9-yl)methyl)-6-(3,4-difluorophenyl)pyridin-3-yl)piperidine-4-carbonitrile], the IC50 is more than 1000 nM.
Regarding `COCCC1(N)CCCN(c2cnc(-c3ccc(F)c(F)c3)cc2Cn2cnc3c(N)ncnc32)C1` (stereo not shown) [Example 60, 9-((5-(3-amino-3-(2-methoxyethyl)piperidin-1-yl)-2-(3,4-difluorophenyl)pyridin-4-yl)methyl)-9H-purin-6-amine], the IC50 fell in the range of 10 to 1000 nM.
The same measure, in the same setting: under `Nc1ncnc2c1ncn2Cc1cc(-c2ccc(F)c(F)c2)ncc1N1CCCC(N)(C(=O)C2CCCC2)C1` (stereo not shown) [Example 100, (3-amino-1-(4-((6-amino-9H-purin-9-yl)methyl)-6-(3,4-difluorophenyl)pyridin-3-yl)piperidin-3-yl)(cyclopentyl)methanone] stands 1 to 10 nM; under `Nc1ncnc2c1ncn2Cc1cc(-c2ccc(F)c(F)c2)ncc1N1CCCC(N)(C(=O)C2CCOC2)C1` (stereo not shown) [Example 111, (3-amino-1-(4-((6-amino-9H-purin-9-yl)methyl)-6-(3,4-difluorophenyl)pyridin-3-yl)piperidin-3-yl)(tetrahydrofuran-3-yl)methanone], more than 1000 nM; under `Nc1ncnc2c1ncn2Cc1cc(-c2ccc3c(c2)CCO3)ncc1N1CC[C@@H](F)[C@@H](N)C1` [Example 14, 9-((5-((3S,4R)-3-amino-4-fluoropiperidin-1-yl)-2-(2,3-dihydrobenzofuran-5-yl)pyridin-4-yl)methyl)-9H-purin-6-amine], 10 to 1000 nM.

Still in this experiment, the particulars now being: read-out: NSD2 IC50.
Turning to `Nc1ncnc2c1ncn2Cc1cc(-c2ccc(F)c(F)c2)ncc1N1CCC[C@@H](N)[C@H]1COC(F)F` [Example 311, 9-((5-((2S,3R)-3-amino-2-((difluoromethoxy)methyl)piperidin-1-yl)-2-(3,4-difluorophenyl)pyridin-4-yl)methyl)-9H-purin-6-amine], the IC50 is 10 to 1000 nM.
With `NC(=O)[C@@H]1[C@H](N)CCCN1c1cnc(-c2ccc(F)c(F)c2)cc1Cn1cnc2c(N)ncnc21` [Example 318, (2S,3R)-3-amino-1-(4-((6-amino-9H-purin-9-yl)methyl)-6-(3,4-difluorophenyl)pyridin-3-yl)piperidine-2-carboxamide], the IC50 is more than 1000 nM.
Same read-out and setting: under `Nc1nccc2c1ncn2Cc1cc(-c2ccc(F)cc2)ncc1N1CCC[C@](N)(c2ccn(C(F)F)n2)C1` [Example 279, (R)-1-((5-(3-amino-3-(1-(difluoromethyl)-1H-pyrazol-3-yl)piperidin-1-yl)-2-(4-fluorophenyl)pyridin-4-yl)methyl)-1H-imidazo[4,5-c]pyridin-4-amine] stands 1 to 10 nM.
With `Nc1ncnc2c1ncn2Cc1cc(-c2ccc(F)c(F)c2)ncc1N1CCC[C@@H](N)[C@H]1CO` [Example 312, ((2S,3R)-3-amino-1-(4-((6-amino-9H-purin-9-yl)methyl)-6-(3,4-difluorophenyl)pyridin-3-yl)piperidin-2-yl)methanol], the IC50 was in the range of 10 to 1000 nM.
Regarding `C[C@H]1CC[C@@H](N)CN1c1cnc(-c2ccc(F)c(F)c2)cc1Cn1cnc2c(N)ncnc21` [Example 310, 9-((5-((2S,5R)-5-amino-2-methylpiperidin-1-yl)-2-(3,4-difluorophenyl)pyridin-4-yl)methyl)-9H-purin-6-amine], the half-inhibitory concentration (IC50) is more than 1000 nM.
Regarding `Nc1ncnc2c1ncn2Cc1cc(-c2ccc(F)c(F)c2)ncc1N1CCC[C@@H](N)[C@H]1CCO` [Example 314, 2-((2R,3R)-3-amino-1-(4-((6-amino-9H-purin-9-yl)methyl)-6-(3,4-difluorophenyl)pyridin-3-yl)piperidin-2-yl)ethan-1-ol], the concentration for half-maximal inhibition (IC50) lay within 10 to 1000 nM.
With `Cn1ccc([C@@]2(N)CCCN(c3cnc(-c4ccc(F)c(F)c4)cc3Cn3cnc4c(N)ncnc43)C2)n1` [Example 275, (R)-9-((5-(3-amino-3-(1-methyl-1H-pyrazol-3-yl)piperidin-1-yl)-2-(3,4-difluorophenyl)pyridin-4-yl)methyl)-9H-purin-6-amine], the half-inhibitory concentration (IC50) was 1 to 10 nM.
`Nc1ncnc2c1ncn2Cc1cc(-c2ccc(F)c(F)c2)ncc1N1C[C@H](N)C[C@H](F)C1` [Example 309, 9-((5-((3R,5S)-3-amino-5-fluoropiperidin-1-yl)-2-(3,4-difluorophenyl)pyridin-4-yl)methyl)-9H-purin-6-amine]: the half-inhibitory concentration (IC50) lay within 10 to 1000 nM.
Still for that read-out and setting: in the case of `CS(=O)(=O)CC1(N)CCCN(c2cnc(-c3ccc(F)c(F)c3)cc2Cn2cnc3c(N)ncnc32)C1` (stereo not shown) [Example 298, 9-((5-(3-amino-3-((methylsulfonyl)methyl)piperidin-1-yl)-2-(3,4-difluorophenyl)pyridin-4-yl)methyl)-9H-purin-6-amine] it was more than 1000 nM; in that of `Nc1ncnc2c1ncn2Cc1cc(-c2ccc(F)c(F)c2)ncc1N1CCC(O)C(N)(CC(F)F)C1` (stereo not shown) [Example 301, 3-amino-1-(4-((6-amino-9H-purin-9-yl)methyl)-6-(3,4-difluorophenyl)pyridin-3-yl)-3-(2,2-difluoroethyl)piperidin-4-ol], 10 to 1000 nM; in that of `Nc1ncnc2c1ncn2Cc1cc(-c2ccc(F)c(F)c2)ncc1N1CCCC(N)(c2ccc(Cl)nn2)C1` (stereo not shown) [Example 249, 9-((5-(3-amino-3-(6-chloropyridazin-3-yl)piperidin-1-yl)-2-(3,4-difluorophenyl)pyridin-4-yl)methyl)-9H-purin-6-amine], 1 to 10 nM.
Take `Nc1ncnc2c1ncn2Cc1cc(-c2ccc(F)cc2)ncc1N1CCC[C@](N)(c2ccn(C(F)F)n2)C1` [Example 273, (R)-9-((5-(3-amino-3-(1-(difluoromethyl)-1H-pyrazol-3-yl)piperidin-1-yl)-2-(4-fluorophenyl)pyridin-4-yl)methyl)-9H-purin-6-amine]: the IC50 lay within 1 to 10 nM.
